Source: patent publication US9776992B2, “1-oxo-1,2-dihydroisoquinolin-7-yl-(5-substituted-thiophen-2-yl)-sulfonamide compounds, formulations containing those compounds, and their use as AICARFT inhibitors in the treatment of cancers” (Eli Lilly and Company, priority 2014, dated 2017)

Biological target: AICARFT (Homo sapiens, UniProt P31939)
Experiment: MS detection of ZMP in low folate media cultured NCI-H460 cells
Assay type: cell-based
Design: endogenous in cells; host or cells: NCI-H460
Conditions: for IC50: Mean ± SEM, ZMP concentration by LC-MS, NCI-H460 cells in low folate media, 16 hours; for AICARFT inhibition in low folate media assay (in words): low levels of folate in the media, summary of Table 16
Description: Grow NCI-H460 cells in complete high folate RPMI media (ATCC #30-2001) until cellular confluence reaches ˜80%. Wash cells with PBS, trypsinize, resuspend cells in complete low folate RPMI media (Gibco #27016-021) and perform a cell count. Transfer 1.25×10^6 cells to a T225 flask containing complete low folate RPMI media (40 mL). Grow for seven days. Split cells again with complete low folate media if confluence surpasses 80%. Wash cells with PBS, trypsinize, resuspend cells in complete low folate RPMI media, and perform a cell count. Aliquot 10×10^6 cells in complete low folate media (1 mL)+5% DMSO per cryovial. Use a cell freezing apparatus to freeze cells in a slow and controlled manner in a −80° C. freezer. The next day, transfer cells to liquid nitrogen for long term storage. Thaw frozen cells from cryovial in 37° C. water bath, wash cells once with low folate assay medium: folate free RPMI 1640 medium (Gibco, #27016-021), Glucose (Sigma, #G5767), Hepes (Hyclone, #SH30237.01), Na Pyruvate (Hyclone, #Sh30239.01), 10% FBS (Hyclone, #SH30070.03). Adjust cells concentration to 250,000 cells/mL with medium, plate cells by adding 100 μl/well (25,000 cells/well) into Biocoat poly-D-lysine 96-well plate (BD, #35-4640), and incubate at 37° C. overnight with 5% CO2. Treat cells with 20 μl/well compound diluted in media containing 3% DMSO. Incubate at 37° C. for 16 hours with 5% CO2, then remove the medium and add 1× SureFire Lysis Buffer (50 μL) (PerkinElem, SureFire® Kit component) to each well and incubate at room temperature for 10 min with gentle shaking.
Cells grown in a 96-well plate have the media removed and are lysed in AlphaScreen® SureFire® lysis buffer. Standard curves containing ZMP, dUMP and AICAr at concentrations of 5-10,000 ng/mL are prepared in 40 mM ammonium acetate, pH 4. Aliquots (40 μL) of each standard or sample are combined in a deep 96-well plate with 160 μL of internal standard solution containing ^13C5-ZMP (custom synthesis) and ^13C5-AICAr (custom synthesis) at 100 ng/mL in 40 mM ammonium acetate, pH 4. A Beckman Biomek FX liquid handler is used to add 400 μL of DCM to each sample. Samples are sealed, vortexed for 5 minutes, and placed in the refrigerator for at least 30 minutes. The samples are centrifuged for 10 minutes at 4,000 rpm and 4° C. using an Eppendorf 5810R centrifuge, and the Biomek liquid handler is used to transfer 75 μL of the aqueous layer into a clean 96-well plate. The plates are sealed prior to analysis.
The LC-MS method utilizes a Shimadzu Prominence 20A HPLC system connected to an AB Sciex 5500™ or an AB Sciex 6500™ triple quadrupole mass spectrometer running Analyst® 2.1 software. Extracted samples are separated using a Thermo Hypercarb™ Javelin guard column (2.1×20 mm, […]) with an injection volume of 15 μL and a flow rate of 1 mL/minute. Mobile phase A is a 95:5 mixture of 50 mM ammonium formate, pH 4 and ACN. Mobile phase B is a 70:30 mixture of ACN and MeOH spiked with 0.3% formic acid and 2% concentrated ammonium hydroxide solution (v/v). The gradient is as follows: 0 minutes, 0% B; 0.25 minutes, 0% B; 2.00 minutes, 30% B; 2.01 minutes, 95% B; 3.50 minutes, 95% B, 3.51 minutes, 0% B, 5.00 minutes, stop.
The mass spectrometer is operated in positive ion TurboIonSpray® multiple reaction monitoring mode with a source temperature of 700° C. The precursor and fragment ions for each analyte are: ZMP (339→110), ^13C5-ZMP (344→110), dUMP (309→81), AICAr (259→127) and ^13C5-AICAr (264→127). Calibration curves are constructed by plotting analyte concentrations vs. analyte/internal standard peak area ratios and performing a linear fit of the data using a 1/concentration weighting with AB Sciex MultiQuant™ 2.1 software. Back-calculated ZMP concentrations are fit to a four-parameter logistic equation using ACTIVITYBASE 4.0 to determine IC50 values.

Chain of AICARFT (P31939 whole entry): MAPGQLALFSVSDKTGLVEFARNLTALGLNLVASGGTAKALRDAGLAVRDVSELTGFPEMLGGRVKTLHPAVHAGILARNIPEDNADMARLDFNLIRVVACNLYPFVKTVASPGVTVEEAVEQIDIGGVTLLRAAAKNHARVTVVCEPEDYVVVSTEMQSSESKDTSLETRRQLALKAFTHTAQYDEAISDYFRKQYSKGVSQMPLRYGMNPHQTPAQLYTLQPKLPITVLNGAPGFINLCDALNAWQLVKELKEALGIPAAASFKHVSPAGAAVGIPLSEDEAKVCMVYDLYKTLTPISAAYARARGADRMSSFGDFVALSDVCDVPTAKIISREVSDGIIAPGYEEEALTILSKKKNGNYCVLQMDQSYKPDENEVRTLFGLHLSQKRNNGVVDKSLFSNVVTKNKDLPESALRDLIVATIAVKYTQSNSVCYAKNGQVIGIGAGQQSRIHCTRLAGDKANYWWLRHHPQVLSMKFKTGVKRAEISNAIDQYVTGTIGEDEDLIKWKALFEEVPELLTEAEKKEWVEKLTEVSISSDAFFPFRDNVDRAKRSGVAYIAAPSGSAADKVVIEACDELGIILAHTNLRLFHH

| Structure (SMILES) | IC50 [nM] | AICARFT inhibition in low folate media assay (in words) |
| --- | --- | --- |
| O=c1[nH]ccc2cc(F)c(NS(=O)(=O)c3ccc(N4C[C@@H](O)C(F)(F)C4)s3)cc12 [Example 41, 5-[(4R)-3,3-difluoro-4-hydroxypyrrolidin-1-yl]-N-(6-fluoro-1-oxo-1,2-dihydroisoquinolin-7-yl)thiophene-2-sulfonamide] | 42.2 | still inhibit AICARFT |
| O=c1[nH]ccc2cc(F)c(NS(=O)(=O)c3ccc([C@@H]4CC[C@@H](O)C4)s3)cc12 (single isomer, unassigned) [Example 46] | 39.6 | still inhibit AICARFT |
| O=c1[nH]ccc2cc(F)c(NS(=O)(=O)c3ccc(N4C[C@@H](O)[C@@H](F)C4)s3)cc12 (single isomer, unassigned) [Example 33] | 7.93 | still inhibit AICARFT |

Second part, the compound after the results:

| IC50 [nM] | AICARFT inhibition in low folate media assay (in words) | Structure (SMILES) |
| --- | --- | --- |
| 10.1 | still inhibit AICARFT | CCC1(C)CC(c2ccc(S(=O)(=O)Nc3cc4c(=O)[nH]ccc4cc3F)s2)=CNC1=O (single isomer, unassigned; isomer 1) [Example 84, 5-(5-Ethyl-5-methyl-6-oxo-1,4,5,6-tetrahydropyridin-3-yl)-N-(6-fluoro-1-oxo-1,2-dihydroisoquinolin-7-yl)thiophe2ne-2-sulfonamide, Isomer 1] |
| 10.2 | still inhibit AICARFT | CC1(C)CC(c2ccc(S(=O)(=O)Nc3cc4c(=O)[nH]ccc4cc3F)s2)=CNC1=O [Example 81, 5-(5,5-Dimethyl-6-oxo-1,4,5,6-tetrahydropyridin-3-yl)-N-(6-fluoro-1-oxo-1,2-dihydroisoquinolin-7-yl)thiophene-2-sulfonamide] |
|  | still inhibit AICARFT | O=c1[nH]ccc2cc(F)c(NS(=O)(=O)c3ccc(N4CC[C@@H](O)C4)s3)cc12 [Example 1, N-(6-Fluoro-1-oxo-1,2-dihydroisoquinolin-7-yl)-5-[(3R)-3-hydroxypyrrolidin-1-yl]thiophene-2-sulfonamide] |
